# Read-outs that look alike come from different tables or passages of the source.
# Legend:
# [1] = system: Bovine capillary endothelial cells; experiment: Protection against radiation-induced apoptosis (DAPI apoptotic index); type: cell-based; conditions: for concentration providing protection from the apoptotic effects of ionizing radiation: DAPI staining, apoptotic index, 6 h
# Protocol: Bovine capillary endothelial cells were cultured on eight chamber Labtek slides and exposed to ionizing radiation (20 Gy) for 6 hours. After this time, cells were either left untreated or treated with compound at the concentration indicated on the x-axis. Cells were then fixed in methanol and stained with 5 μg/ml DAPI and DNA was visualized using a Nikon epifluorescence microscope, and apoptosis scored and expressed as an apoptotic index according to the percentage of apoptotic cells in a field of 100 cells. Open bars indicate apoptotic index following irradiation. Hatched bars indicate apoptotic index for control cells not receiving a dose of ionizing radiation.
# (§1) Bovine capillary endothelial cells were cultured on eight-chamber Labtek slides and exposed to ionizing radiation (20 Gy), which was calibrated using an X-ray exposure meter. […] In control experiments, cells either received no ionizing radiation (sham) or no compound. After 6 h incubation, the cells were fixed in methanol and stained with 5 μg/ml 4,6-diamidino-2-phenylindole (DAPI). DNA was visualized using a Nikon epifluorescence microscope, and apoptosis was scored and expressed as an apoptotic index (% apoptotic cells in a field of 100).
# [2] = Lipophilicity by octanol partitioning; type: physicochemical; conditions: for Log10 P value / P value (octanol partitioning coefficient): octanol-water
# Protocol: To indicate the likelihood that the compounds will cross lipid membranes and be absorbed once administered by oral means, their lipophilicities were determined by octanol partitioning. […] Quantitation was performed by HPLC-UV.
# PC12 cells = experiment: Protection against STS-induced apoptosis in PC12 cells (XTT viability assay); type: cell-based, rat
# Protocol: Rat pheochromocytoma (PC12) cells were cultured in collagen-coated 96-well plates according to directions provided by the American Type Culture Collection. Staurosporine was added at various concentrations sufficient to induce apoptosis. Test compounds were added together with the staurosporine. Cells were incubated overnight at 37° C., 5% CO2. After 18-24 hours, test media was removed and cell viability was determined using the XTT viability assay described by Baker et al., J. Pharmacol. Exp, Therapeutics 284, 215-221, 1998, the contents of which are incorporated herein by reference.
# [3] = Superoxide dismutase (SOD) activity; type: biochemical
# [4] = Stability in USP simulated gastric fluid (SGF); type: in vitro ADME; conditions: 37° C., pH approx. 1.2
# Description: Aliquots of SGF were withdrawn and intact compound quantitated by HPLC-UV.
# [5] = system: cultured mesencephalic tissue slices; experiment: MPP+ induced neurodegeneration in cultured mesencephalic tissue slices (LDH release); type: cell-based, rat; conditions: 20 μM MPP+; for prevention of cytotoxicity induced by MPP+: compound 100 nM, 1.0 μM, 10 μM, FIG. 17
# Protocol: FIG. 17 is a graphical representation showing the effects of exemplary low molecular weight metalloporphyrin compounds of the present invention on MPP+ induced neurodegeneration in cultured mesencephalic tissue slices. Mesencephalic tissue slices were prepared from PND 3-5 rats and maintained in culture for 2 weeks. The tissue slices were incubated with a porphyrin compound as indicated on the x-axis for 6 hours before adding 20 μM MPP+ to induce neuronal apoptosis. Concentrations of each porphyrin compound tested were 100 nM ? 1.0 μM ? and 10 μM ? Following a further incubation for 48 hours, the slices were collected and the level of lactate dehydrogenase (LDH) released into the medium was determined.
# [6] = Oral bioavailability in vivo, plasma levels by LC-MS/MS after intragastric gavage; design: species or system rat; conditions: intragastric gavage, 4 mg/kg EUK-418 or 2 mg/kg EUK-423
# Protocol: FIG. 18 is a graphical representation showing the bioavailability in vivo for the compounds {[{(Porphine-5,15-diyl)bis[cyclopropyl-diyl]}](2-)-N^21,N^22,N^23,N^24} manganese(III) acetate (EUK-418) and {[{(Porphine-5,15-diyl)bis[benzyl-diyl]}](2-)-N^21,N^22,N^23,N^24} manganese(III) acetate (EUK-423) in rats. Fasted and fed Sprague-Dawley rats were dosed by intragastric gavage with either 4 mg/kg EUK-418 or 2 mg/kg EUK-423. At the times indicated on the x-axis, plasma was obtained from the animals and the concentrations of compounds determined by LC-MS/MS.
# Fasted and fed Sprague-Dawley rats were dosed by intragastric gavage with either 4 mg/kg EUK-418 or 2 mg/kg EUK-423. At time points up to 7 hr post-administration, animals were sacrificed, their blood collected over heparin, plasma samples prepared by centrifugation, and plasma levels of the compounds were determined by LC-MS/MS.
# [7] = system: Bovine capillary endothelial cells; experiment: Cytotoxicity/necrosis of non-irradiated cells (LDH release, field number); type: cell-based
# Protocol: as §1, with “100). […] Field number was also calculated for all other compounds tested as a control (results not shown).” for “100).”
# To determine cytotoxicity of the compounds under these conditions, duplicate samples of the cells receiving a dose of compound at each concentration tested in the absence of a dose of ionizing radiation were assayed for release of LDH into the culture medium.
# [8] = biological target: mitochondrial benzodiazepine receptor (mBzR) (Homo sapiens, UniProt P30536); experiment: Inhibition of tritiated PK11195 binding to the receptor; conditions: read-out: Ki against the binding of PK11195
# Sequence of mitochondrial benzodiazepine receptor (mBzR) (P30536 whole entry, species assumed): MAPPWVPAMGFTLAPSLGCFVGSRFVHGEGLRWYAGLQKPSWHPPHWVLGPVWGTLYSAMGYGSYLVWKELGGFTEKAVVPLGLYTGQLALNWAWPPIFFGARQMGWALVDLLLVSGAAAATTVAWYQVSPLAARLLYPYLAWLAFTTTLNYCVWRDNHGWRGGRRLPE
# Protocol: Standard methods e.g., competition assays, are used to determine ge an inhibition, prevention or delay in binding of a ligand of a mitochondrial benzodiazepine receptor by a low molecular weight porphyrin derivative compound of the invention. As exemplified herein, labelled PK11195 compound is contacted with the receptor in the presence of different concentrations of a compound being tested and binding of the labelled PK11195 compound is determined. […] Preferably, the concentration of the compound being tested that inhibits binding of the ligand by 50% (i.e., […]) is determined.
# FIG. 15 is a graphical representation showing the ability of the compounds {[{(Porphine-5,15-diyl)bis[cyclopropyl-diyl]}](2-)-N^21,N^22,N^23,N^24} manganese (III) acetate (EUK-418) and (5,10,15,20-Tetra ethylporphyrinato) manganese (III) acetate (EUK-425) to inhibit binding of tritiated PK11195 to the mitochondrial benzodiazepine receptor (mBzR). The Ki value for each compound is indicated.
# FIG. 16 is a tabular representation showing a series of low molecular weight metalloporphyrin compounds designated EUK-418, EUK-423, EUK-424, EUK-425 and EUK-426, that inhibit ligand binding to the mitochondrial benzodiazepine receptor (mBzR) with moderate affinity, as determined by the Ki value (last column) for inhibition of tritiated PK11195, binding to the receptor. […]
# [9] = FIG. 12, at up to about 5 μM concentration, toxicity blunts protection at high concentrations
# [10] = cuvette format, read-out: Cuvette IC50
# [11] = microplate format, read-out: Microplate IC50
Structure (SMILES),concentration providing protection from the apoptotic effects of ionizing radiation ([1]; 20 Gy) [µM],lipophilicity ([2]; octanol partitioning),Log10 P value [2],P value (octanol partitioning coefficient) [2],effect on staurosporine-induced apoptosis of PC12 cells (PC12 cells; [9]),"IC50 [3, 10] [µM]","IC50 [3, 11] [µM]",Percentage remaining after 90 mins in SGF [4] [%],prevention of cytotoxicity induced by MPP+ [5],"protection of cells exposed to ionizing radiation ([1]; about 3-10 μM compound, 20 Gy, p<0.006)","protection of cells exposed to ionizing radiation ([1]; low doses, FIG. 13 and FIG. 14)",effect on staurosporine-induced apoptosis of PC12 cells (PC12 cells; FIG. 11),plasma time course [6],found in plasma / bioavailable after oral administration ([6]; fasted and fed rats),"necrosis at the protective concentration ([7]; 3 μM EUK-418, about 3-10 μM EUK-423)","concentration causing significant increase in field number for control cells, indicating cytotoxicity ([7]; control cells without ionizing radiation) [µM]","EC50 ([5]; LDH release, read-out: EC50 in MPP+ slice model) [µM]",Ki [8] [µM],"necrosis at the doses tested ([7]; range of 0.5 μM to 100 μM, data therefore expressed as field number)"
"C1=Cc2nc1cc1ccc([n-]1)c(C1CCCCC1)c1nc(cc3ccc([n-]3)c2C2CCCCC2)C=C1.[Cl-].[Mn+3] [EUK-452, {[{(Porphine-5,15-diyl)bis[cyclohexyl-diyl]}](2-)-N^21,N^22,N^23,N^24} manganese(III) chloride]",3,most lipophilic,1.973 ± 0.008,93.97 ± 1.67,effectively reduce apoptosis,20.1,9.05,98.2,–,–,–,–,–,–,–,–,–,–,–
"C1=Cc2nc1cc1ccc([n-]1)c(-c1ccccc1)c1nc(cc3ccc([n-]3)c2-c2ccccc2)C=C1.CC(=O)[O-].[Mn+3] [EUK-423, {[{(Porphine-5,15-diyl)bis[benzyl-diyl]}](2-)-N^21,N^22,N^23,N^24} manganese(III) acetate]",3 to 10,–,0.907 ± 0.002,8.07 ± 0.10,effectively reduce apoptosis,17.3,4.1,91.2,prevent cytotoxicity,approximately 87%,protected,effectively reduce apoptosis,increased in plasma during the first four hour period,bioavailable in vivo,no detectable necrosis,≥ 30,–,–,–
"CC(=O)[O-].CCc1c2nc(c(CC)c3ccc([n-]3)c(CC)c3nc(c(CC)c4ccc1[n-]4)C=C3)C=C2.[Mn+3] [EUK-425, (5,10,15,20-Tetraethylporphyrinato)manganese (III) acetate]",–,–,0.932 ± 0.006,8.56 ± 0.35,effectively reduce apoptosis,32.5,0.439,97.0,prevent cytotoxicity,–,–,–,–,–,–,–,< 0.1,0.027,necrosis was observed
"CCCc1c2nc(cc3ccc([n-]3)c(CCC)c3nc(cc4ccc1[n-]4)C=C3)C=C2.[Cl-].[Mn+3] [EUK-453, {[{(Porphine-5,15-diyl)bis[propyl-diyl]}](2-)-N^21,N^22,N^23,N^24} manganese(III) chloride]",–,–,0.619 ± 0.017,4.16 ± 0.16,effectively reduce apoptosis,60.9,2.3,98.4,–,–,–,–,–,–,–,–,–,–,–
"CC(=O)[O-].CC(C)c1c2nc(c(C(C)C)c3ccc([n-]3)c(C(C)C)c3nc(c(C(C)C)c4ccc1[n-]4)C=C3)C=C2.[Mn+3] [EUK-424, (5,10,15,20-Tetraisopropylporphyrinato)manganese (III) acetate]",–,–,–,–,–,–,–,–,prevent cytotoxicity,–,–,–,–,–,–,–,–,–,–
"CC(=O)[O-].COc1ccc(-c2c3nc(cc4ccc([n-]4)c(-c4ccc(OC)cc4)c4nc(cc5ccc2[n-]5)C=C4)C=C3)cc1.[Mn+3] [EUK-450, {[{(Porphine-5,15-diyl)bis[benzene-1,4 diyl (4-methyl-oxy)]}](2-)-N^21,N^22,N^23,N^24} manganese(III) acetate]",–,–,0.650 ± 0.010,4.46 ± 0.11,effectively reduce apoptosis,9.98,3.12,98.1,–,–,–,–,–,–,–,–,–,–,–
"CC(=O)O.CCOc1cccc(C=NCCN=Cc2cccc(OCC)c2O)c1O.[Mn] [EUK-189, reference compound]",–,–,–,–,–,0.55,0.824,–,–,–,–,–,–,–,–,–,–,–,–

# — US20100120738A1, “ANTI-APOPTOTIC BENZODIAZEPINE RECEPTOR LIGAND INHIBITORS” (priority 2006, published 2010)
